Experimental data taken from patent publication US9273058B2 (BRISTOL-MYERS SQUIBB COMPANY, priority 2013, dated 2016).
Where two headings read alike, the source gives them in different places.

How the values were obtained:
[1] = target: CK1δ (Homo sapiens, UniProt P48730); experiment: CK1δ kinase assay (Caliper LabChip electrophoretic separation of fluoresceinated peptide substrate and product); assay type: biochemical; settings: 200 pM CK1δ, 50 μM ATP, 1.5 μM peptide, 22 hours at room temperature
Summary of the method: (§1)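 Eleven-concentration compound series in kinase reactions run for 22 hours at room temperature. Terminated with EDTA, with product conversion read by electrophoretic separation. Non-linear regression gave IC50.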

[2] = target: CK1ε (Homo sapiens, UniProt P49674); experiment: CK1ε kinase assay (Caliper LabChip electrophoretic separation of fluoresceinated peptide substrate and product); assay type: biochemical; settings: 200 pM CK1ε, 50 μM ATP, 1.5 μM peptide, 22 hours at room temperature
Summary of the method: as §1

CK1δ, sequence (P48730 whole entry): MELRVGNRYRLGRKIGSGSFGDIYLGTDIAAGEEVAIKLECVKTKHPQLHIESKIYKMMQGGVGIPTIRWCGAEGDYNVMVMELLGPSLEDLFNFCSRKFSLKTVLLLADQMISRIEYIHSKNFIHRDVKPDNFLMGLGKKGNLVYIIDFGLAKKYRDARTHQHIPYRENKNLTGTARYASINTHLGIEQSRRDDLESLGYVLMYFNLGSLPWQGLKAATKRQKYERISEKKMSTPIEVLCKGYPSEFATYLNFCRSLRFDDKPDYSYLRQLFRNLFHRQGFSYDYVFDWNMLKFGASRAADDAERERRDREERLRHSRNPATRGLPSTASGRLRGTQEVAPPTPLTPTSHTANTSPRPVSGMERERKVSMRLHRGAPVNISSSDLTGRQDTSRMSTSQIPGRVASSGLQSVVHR
CK1ε, sequence (P49674 whole entry): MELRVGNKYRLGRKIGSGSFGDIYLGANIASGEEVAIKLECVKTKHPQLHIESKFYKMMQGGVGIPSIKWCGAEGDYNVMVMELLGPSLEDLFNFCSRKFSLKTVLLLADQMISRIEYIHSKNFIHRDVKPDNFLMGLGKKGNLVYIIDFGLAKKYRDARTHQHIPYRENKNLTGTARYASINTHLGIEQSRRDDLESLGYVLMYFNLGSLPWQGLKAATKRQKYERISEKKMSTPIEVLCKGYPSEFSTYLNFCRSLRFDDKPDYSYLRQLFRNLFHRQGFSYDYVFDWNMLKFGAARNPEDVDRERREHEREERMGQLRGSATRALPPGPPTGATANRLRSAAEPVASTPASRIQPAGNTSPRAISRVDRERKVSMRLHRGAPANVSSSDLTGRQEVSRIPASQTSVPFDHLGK

N#Cc1ccc(O[C@H]2C[C@H](NC(=O)N3CCn4nc(-c5ccc(F)c(Cl)c5)c(C(N)=O)c4C3)C2)cc1 [Compound 266, 2-(3-Chloro-4-fluorophenyl)-N^5-((1r,3r)-3-(4-cyanophenoxyl)cyclobutyl)-6,7-dihydropyrazolo[1,5-a]pyrazine-3,5(4H)-dicarboxamide]
IC50 ([1]; read-out: CK1δ IC50 range): 0.01 to 10 nM | IC50 ([2]; read-out: CK1ε IC50 range): 0.01 to 10 nM

N#CC1(NC(=O)N2CCn3nc(-c4ccc(F)c(Cl)c4)c(C(N)=O)c3C2)CCOC1 (centres unmarked) [Compound 334, 2-(3-Chloro-4-fluorophenyl)-N^5-(3-cyanotetrahydrofuran-3-yl)-6,7-dihydropyrazolo[1,5-a]pyrazine-3,5(4H)-dicarboxamide]
IC50 ([1]; read-out: CK1δ IC50 range): 0.01 to 10 nM | IC50 ([2]; read-out: CK1ε IC50 range): 0.01 to 10 nM

COC12CCC(NC(=O)N3CCn4nc(-c5ccc(F)c(Cl)c5)c(C(N)=O)c4C3)(CC1)C(F)(F)C2 [Compound A61, 2-(3-Chloro-4-fluorophenyl)-N^5-(2,2-difluoro-4-methoxybicyclo[2.2.2]octan-1-yl)-6,7-dihydropyrazolo[1,5-a]pyrazine-3,5(4H)-dicarboxamide]
IC50 ([1]; read-out: CK1δ IC50 range): 0.01 to 10 nM | IC50 ([2]; read-out: CK1ε IC50 range): 0.01 to 10 nM

NC(=O)c1c(-c2cccc(F)c2)nn2c1CN(C(=O)Nc1ccncc1)CC2 [Compound 92, 2-(3-Fluorophenyl)-N^5-(pyridin-4-yl)-6,7-dihydropyrazolo[1,5-a]pyrazine-3,5(4H)-dicarboxamide]
IC50 ([1]; read-out: CK1δ): 446 nM | IC50 ([1]; read-out: CK1δ IC50 range): 100 to 2000 nM | IC50 ([2]; read-out: CK1ε IC50 range): 100 to 2000 nM

CC12CC3(C)CC(C)(C1)CC(NC(=O)N1CCn4nc(-c5ccc(Cl)c(Cl)c5)c(C(N)=O)c4C1)(C2)C3 [Compound A91, 2-(3,4-Dichlorophenyl)-N^5-((3s,5s,7s)-3,5,7-trimethyladamantan-1-yl)-6,7-dihydropyrazolo[1,5-a]pyrazine-3,5(4H)-dicarboxamide]
IC50 ([1]; read-out: CK1δ IC50 range): 0.01 to 10 nM | IC50 ([2]; read-out: CK1ε IC50 range): 0.01 to 10 nM

CC1(C)C2CCC1(NC(=O)N1CCn3nc(-c4ccc(F)c(Cl)c4)c(C(N)=O)c3C1)CC2O (centres unmarked) [Compound A66, 2-(3-Chloro-4-fluorophenyl)-N^5-(3-hydroxy-7,7-dimethylbicyclo[2.2.1]heptan-1-yl)-6,7-dihydropyrazolo[1,5-a]pyrazine-3,5(4H)-dicarboxamide]
IC50 ([1]; read-out: CK1δ IC50 range): 0.01 to 10 nM | IC50 ([2]; read-out: CK1ε IC50 range): 0.01 to 10 nM

NC(=O)c1c(-c2cccc(F)c2)nn2c1CN(C(=O)Nc1c(F)cc(F)cc1F)CC2 [Compound 40, 2-(3-Fluorophenyl)-N^5-(2,4,6-trifluorophenyl)-6,7-dihydropyrazolo[1,5-a]pyrazine-3,5(4H)dicarboxamide]
IC50 ([1]; read-out: CK1δ IC50 range): 10 to 100 nM | IC50 ([2]; read-out: CK1ε IC50 range): 100 to 2000 nM

NC(=O)c1c(-c2ccc(Cl)c(Cl)c2)nn2c1CN(C(=O)NC1(C(F)F)CCC1)CC2 [Compound 237, 2-(3,4-Dichlorophenyl)-N^5-(1-(difluoromethyl)cyclobutyl)-6,7-dihydropyrazolo[1,5-a] pyrazine-3,5(4H)-dicarboxamide]
IC50 ([1]; read-out: CK1δ IC50 range): 0.01 to 10 nM | IC50 ([2]; read-out: CK1ε IC50 range): 0.01 to 10 nM

NC(=O)c1c(-c2cccc(Cl)c2)nn2c1CN(C(=O)N[C@H]1C[C@@H]3[C@H](C1)C3(F)F)CC2 [Compound 184, 2-(3-Chlorophenyl)-N^5-((1R,3r,5S)-6,6-difluorobicyclo[3.1.0]hexan-3-yl)-6,7-dihydropyrazolo[1,5-a]pyrazine-3,5(4H)-dicarboxamide]
IC50 ([1]; read-out: CK1δ IC50 range): 0.01 to 10 nM | IC50 ([2]; read-out: CK1ε IC50 range): 0.01 to 10 nM

CC(C)(C)NC(=O)N1CCn2nc(-c3cccc(F)c3)c(C(N)=O)c2C1 [Compound 4, N^5-(tert-Butyl)-2-(3-fluorophenyl)-6,7-dihydropyrazolo[1,5-a]pyrazine-3,5(4H)-dicarboxamide]
IC50 ([1]; read-out: CK1δ): 10.9 nM | IC50 ([1]; read-out: CK1δ IC50 range): 10 to 100 nM | IC50 ([2]; read-out: CK1ε): 38.1 nM | IC50 ([2]; read-out: CK1ε IC50 range): 10 to 100 nM

NC(=O)c1c(-c2cccc(Cl)c2)nn2c1CN(C(=O)NC13CCCC(CCC1)C3)CC2 [Compound A84, N^5-((1r,5r)-Bicyclo[3.3.1]nonan-1-yl)-2-(3-chlorophenyl)-6,7-dihydropyrazolo[1,5-a]pyrazine-3,5(4H)-dicarboxamide]
IC50 ([1]; read-out: CK1δ IC50 range): 0.01 to 10 nM | IC50 ([2]; read-out: CK1ε IC50 range): 0.01 to 10 nM

NC(=O)c1c(-c2cccc(F)c2)nn2c1CN(C(=O)NCCc1ccc(F)cc1)CC2 [Compound 42, N^5-(4-Fluorophenethyl)-2-(3-fluorophenyl)-6,7-dihydropyrazolo[1,5-a]pyrazine-3,5(4H)-dicarboxamide]
IC50 ([1]; read-out: CK1δ IC50 range): 10 to 100 nM | IC50 ([2]; read-out: CK1ε IC50 range): 100 to 2000 nM

CC(C)(NC(=O)N1CCn2nc(-c3cccc(Cl)c3)c(C(N)=O)c2C1)c1ccc(C#N)cc1 [Compound 173, 2-(3-Chlorophenyl)-N^5-(2-(4-cyanophenyl)propan-2-yl)-6,7-dihydropyrazolo[1,5-a] pyrazine-3,5(4H)-dicarboxamide]
IC50 ([1]; read-out: CK1δ IC50 range): 0.01 to 10 nM | IC50 ([2]; read-out: CK1ε IC50 range): 0.01 to 10 nM

N#CC12CCC(NC(=O)N3CCn4nc(-c5ccc(F)c(Cl)c5)c(C(N)=O)c4C3)(CC1)C2 [Compound A140, 2-(3-Chloro-4-fluorophenyl)-N^5-(4-cyanobicyclo[2.2.1]heptan-1-yl)-6,7-dihydropyrazolo[1,5-a]pyrazine-3,5(4H)-dicarboxamide]
IC50 ([1]; read-out: CK1δ IC50 range): 0.01 to 10 nM | IC50 ([2]; read-out: CK1ε IC50 range): 0.01 to 10 nM

2-(3-Chloro-4-fluorophenyl)-N^5-(3,3-difluorocyclopentyl)-6,7-dihydropyrazolo[1,5-a]pyrazine-3,5(4H)-dicarboxamide [Compound 332]
IC50 ([1]; read-out: CK1δ IC50 range): 0.01 to 10 nM | IC50 ([2]; read-out: CK1ε IC50 range): 0.01 to 10 nM

NC(=O)c1c(-c2ccc(F)c(Cl)c2)nn2c1CN(C(=O)NC1CC(F)(F)C1)CC2C(F)(F)F (single isomer, unassigned) [Compound A126, 2-(3-Chloro-4-fluorophenyl)-N^5-(3,3-difluorocyclobutyl)-7-(trifluoromethyl)-6,7-dihydropyrazolo[1,5-a]pyrazine-3,5(4H)-dicarboxamide]
IC50 ([1]; read-out: CK1δ IC50 range): 0.01 to 10 nM | IC50 ([2]; read-out: CK1ε IC50 range): 0.01 to 10 nM

CC1CC(NC(=O)N2CCn3nc(-c4ccc(Cl)c(Cl)c4)c(C(N)=O)c3C2)C1 (single isomer, unassigned) [Compound 248, 2-(3,4-Dichlorophenyl)-N^5-(3-methylcyclobutyl)-6,7-dihydropyrazolo[1,5-a]pyrazine-3,5(4H)-dicarboxamide]
IC50 ([1]; read-out: CK1δ): 1.5 nM | IC50 ([1]; read-out: CK1δ IC50 range): 0.01 to 10 nM | IC50 ([2]; read-out: CK1ε): 0.4 nM | IC50 ([2]; read-out: CK1ε IC50 range): 0.01 to 10 nM

NC(=O)c1c(-c2ccc(F)c(Cl)c2)nn2c1CN(C(=O)NC13CCC(F)(CC1)CC3)CC2 [Compound A54, 2-(3-Chloro-4-fluorophenyl)-N^5-(4-fluorobicyclo[2.2.2]octan-1-yl)-6,7-dihydropyrazolo[1,5-a]pyrazine-3,5(4H)-dicarboxamide]
IC50 ([1]; read-out: CK1δ IC50 range): 0.01 to 10 nM | IC50 ([2]; read-out: CK1ε IC50 range): 0.01 to 10 nM

CC(C)(C)NC(=O)N1CCn2nc(-c3ccc(C#N)cc3)c(C(N)=O)c2C1 [Compound 127, N^5-(tert-Butyl)-2-(4-cyanophenyl)-6,7-dihydropyrazolo[1,5-a] pyrazine-3,5(4H)-dicarboxamide]
IC50 ([1]; read-out: CK1δ): 357 nM | IC50 ([1]; read-out: CK1δ IC50 range): 100 to 2000 nM | IC50 ([2]; read-out: CK1ε): 444 nM | IC50 ([2]; read-out: CK1ε IC50 range): 100 to 2000 nM

CC1CN(C(=O)NC(C)(C)C)Cc2c(C(N)=O)c(-c3ccc(Cl)c(Cl)c3)nn21 (centres unmarked) [Compound A34, N^5-(tert-Butyl)-2-(3,4-dichlorophenyl)-7-methyl-6,7-dihydropyrazolo[1,5-a]pyrazine-3,5(4H)-dicarboxamide]
IC50 ([1]; read-out: CK1δ IC50 range): 0.01 to 10 nM | IC50 ([2]; read-out: CK1ε IC50 range): 0.01 to 10 nM

NC(=O)c1c(-c2ccc(F)c(Cl)c2)nn2c1CN(C(=O)NC1CC3(C1)CC3(F)F)CC2 (single isomer, unassigned) [Compound 320, 2-(3-Chloro-4-fluorophenyl)-N^5-(1,1-difluorospiro[2.3]hexan-5-yl)-6,7-dihydropyrazolo[1,5-a]pyrazine-3,5(4H)-dicarboxamide]
IC50 ([1]; read-out: CK1δ IC50 range): 0.01 to 10 nM | IC50 ([2]; read-out: CK1ε IC50 range): 0.01 to 10 nM

CC1(NC(=O)N2CCn3nc(-c4cccc(Cl)c4)c(C(N)=O)c3C2)CC2(C1)CC2(F)F (single isomer, unassigned) [Compound 331, 2-(3-Chlorophenyl)-N^5-(1,1-difluoro-5-methylspiro[2.3]hexan-5-yl)-6,7-dihydropyrazolo[1,5-a]pyrazine-3,5(4H)-dicarboxamide]
IC50 ([1]; read-out: CK1δ IC50 range): 0.01 to 10 nM | IC50 ([2]; read-out: CK1ε IC50 range): 0.01 to 10 nM

CC(C)(C)NC(=O)N1CCn2nc(-c3cc(F)ccc3F)c(C(N)=O)c2C1 [Compound 151, N^5-(tert-Butyl)-2-(2,5-difluorophenyl)-6,7-dihydropyrazolo[1,5-a] pyrazine-3,5(4H)-dicarboxamide]
IC50 ([1]; read-out: CK1δ): 122 nM | IC50 ([1]; read-out: CK1δ IC50 range): 100 to 2000 nM | IC50 ([2]; read-out: CK1ε): 179 nM | IC50 ([2]; read-out: CK1ε IC50 range): 100 to 2000 nM

CC(C)(C)NC(=O)N1Cc2c(C(N)=O)c(-c3ccc(F)c(Cl)c3)nn2C(CCF)C1 (single isomer, unassigned) [Compound A102, N^5-(tert-Butyl)-2-(3-chloro-4-fluorophenyl)-7-(2-fluoroethyl)-6,7-dihydropyrazolo[1,5-a]pyrazine-3,5(4H)-dicarboxamide]
IC50 ([1]; read-out: CK1δ IC50 range): 0.01 to 10 nM | IC50 ([2]; read-out: CK1ε IC50 range): 0.01 to 10 nM

CC(C)(NC(=O)N1CCn2nc(-c3ccc(F)c(Cl)c3)c(C(N)=O)c2C1)C1CCC(F)(F)CC1 [Compound 232, 2-(3-Chloro-4-fluorophenyl)-N^5-(2-(4,4-difluorocyclohexyl)propan-2-yl)-6,7-dihydropyrazolo[1,5-a]pyrazine-3,5(4H)-dicarboxamide]
IC50 ([1]; read-out: CK1δ IC50 range): 0.01 to 10 nM | IC50 ([2]; read-out: CK1ε IC50 range): 0.01 to 10 nM

CS[C@H]1C[C@@H](NC(=O)N2CCn3nc(-c4ccc(Cl)c(Cl)c4)c(C(N)=O)c3C2)C1 [Compound 271, 2-(3,4-Dichlorophenyl)-N^5-((1s,3s)-3-(methylthio)cyclobutyl)-6,7-dihydropyrazolo[1,5-a] pyrazine-3,5(4H)-dicarboxamide]
IC50 ([1]; read-out: CK1δ IC50 range): 0.01 to 10 nM | IC50 ([2]; read-out: CK1ε IC50 range): 0.01 to 10 nM

CC(C)(C)NC(=O)N1Cc2c(C(N)=O)c(-c3ccc(F)c(Cl)c3)nn2C(CF)(CF)C1 [Compound A136]
IC50 ([1]; read-out: CK1δ IC50 range): 0.01 to 10 nM | IC50 ([2]; read-out: CK1ε IC50 range): 0.01 to 10 nM

COC12CCC(NC(=O)N3CCn4nc(-c5cccc(Cl)c5)c(C(N)=O)c4C3)(CC1)C(=O)C2 [Compound A76, 2-(3-Chlorophenyl)-N^5-(4-methoxy-2-oxobicyclo[2.2.2]octan-1-yl)-6,7-dihydropyrazolo[1,5-a]pyrazine-3,5(4H)-dicarboxamide]
IC50 ([1]; read-out: CK1δ IC50 range): 0.01 to 10 nM | IC50 ([2]; read-out: CK1ε IC50 range): 0.01 to 10 nM
